Measurements published in patent publication EP0983763A1, “PREVENTIVES FOR RECONSTRICTION” (TAISHO PHARMACEUTICAL CO. LTD, priority 1997, dated 1998).

Experiments:
[1] = Total blood cholesterol level by enzyme method in the WHHL rabbit endothelial injury model; type: in vivo, WHHL strain male rabbits; settings: WHHL rabbits, 4 weeks after endothelium injury, Means ± S.E., control 841±44
Text: (§1) As test animals were used a group of 4 homozygous hereditary hyperlipemic WHHL strain male rabbits of 2 months (available from Kitayama RABES K.K.) A balloon catheter for removing arterial embolus (Fogarty catheter, E-060-2F, available from Baxter Co., Inc.) was inserted into the right common carotid artery via the right external carotid artery of the rabbits under anesthesia with pentobarbital. The right common carotid artery was abraded three times with the balloon swollen (a balloon pressure of 0.5-1.0 atm) to produce a model for the injured vascular endothelium. The drug was administered for 4 weeks after the endothelium injury, and then the artery was excised and fixed with 10% neutral buffered formalin to prepare a slice of the arterial ring tissue. Elastic fiber-stained tissue preparations were prepared by Elastic Van Gieson (EVG) staining. Areas of the intima (I) and of the medium (M) were measured by means of an image analysis system (Adobe Photoshop, Unitimage for the Apple Macintosh) and a ratio of both values (I/M) was calculated to determine a level of intimal thickening. A total blood cholesterol level was measured according to an enzyme method (Autosera CHO-2, Daiichi Kagaku Yakuhin K.K.) using an autoanalyzer (Hitachi 7150 type).
(§2) The drug was given in admixture with a rabbit feed RC-4 (available from Oriental Kobo K.K.) at the concentrations of 0.0003% and of 0.003%, and then a dose was calculated from the amount of feed ingested and the body weight.

intimal thickening [2] = experiment: Inhibiting activity on intimal thickening in a model for vascular endothelial injury in WHHL rabbits (balloon catheter injury of right common carotid artery); type: in vivo, WHHL strain male rabbits; settings: for Level of intimal thickening I/M: 4 weeks after endothelium injury, Means ± S.E., control 1.00±0.23
Text: as §1, §2

smooth muscle cells = experiment: Histopathological observation of the thickened intima after injury of the blood vessel; type: in vivo; settings: histopathologically observed; model and dose not stated
intimal thickening [3] = experiment: Inhibiting activity on intimal thickening in a model for vascular endothelial injury in normal rabbits (balloon catheter injury of right common carotid artery); type: in vivo, NZW strain male rabbits; settings: for Level of intimal thickening I/M: 1 week before and 2 weeks after endothelium injury, Means ± S.E., control 0.251±0.030
Protocol: as §1, with “of 5 NZW” for “of 4 homozygous hereditary hyperlipemic WHHL”, “K.K.) After a drug was administered to rabbits for 1 week, a” for “K.K.) A”, “for 2” for “for 4”, “thickening.” for “thickening. A total blood cholesterol level was measured according to an enzyme method (Autosera CHO-2, Daiichi Kagaku Yakuhin K.K.) using an autoanalyzer (Hitachi 7150 type).”
The drug was given in admixture with a rabbit feed RC-4 (available from Oriental Kobo K.K.) at the concentration of 0.0003% and a dose was calculated from the amount of feed ingested and the body weight.

SMILES: CCCCCCCCCCCCCCSCC(=O)Nc1c(C(C)C)cccc1C(C)C [Compound of the invention]
- Total blood cholesterol ([1]; 0.2 mg/kg (0.0003% in feed)): 861 ± 83 mg/dL
- Total blood cholesterol ([1]; 2.0 mg/kg (0.003% in feed)): 907 ± 48 mg/dL
- Level of intimal thickening I/M (intimal thickening [2]; 0.2 mg/kg (0.0003% in feed)): 0.45±0.19
- Level of intimal thickening I/M (intimal thickening [2]; 2.0 mg/kg (0.003% in feed)): 0.38±0.05
- inhibition at 0.2 mg/kg (intimal thickening [2]; Oryctolagus cuniculus, 0.2 mg/kg, from I/M ratio vs control group): 55%
- inhibition at 2 mg/kg (intimal thickening [2]; Oryctolagus cuniculus, 2.0 mg/kg, from I/M ratio vs control group): 62%
- number of smooth muscle cells during the proliferation period in the thickened intima (smooth muscle cells): decrease the number of smooth muscle cells
- Level of intimal thickening I/M (intimal thickening [3]; 0.2 mg/kg (0.0003% in feed)): 0.126±0.028
- inhibition at 0.2 mg/kg (intimal thickening [3]; Oryctolagus cuniculus, feed or water, 0.2 mg/kg (0.0003% in feed), from I/M ratio vs control group): 49.8%

SMILES: CC(C)(Sc1cc(C(C)(C)C)c(O)c(C(C)(C)C)c1)Sc1cc(C(C)(C)C)c(O)c(C(C)(C)C)c1 [Probucol, probucol, reference compound]
- Total blood cholesterol ([1]; 190 mg/kg (0.35% in feed)): 723 ± 44 mg/dL
- Level of intimal thickening I/M (intimal thickening [2]; 190 mg/kg (0.35% in feed)): 0.43±0.08
- inhibition at 190 mg/kg (intimal thickening [2]; Oryctolagus cuniculus, 190 mg/kg, from I/M ratio vs control group): 57%

SMILES: COc1ccc(/C=C/C(=O)Nc2ccccc2C(=O)O)cc1OC [Tranilast, tranilast, reference compound]
- Level of intimal thickening I/M (intimal thickening [3]; 100 mg/kg (0.167% in feed)): 0.184±0.051
- inhibition at 100 mg/kg (intimal thickening [3]; Oryctolagus cuniculus, feed or water, 100 mg/kg (0.167% in feed), from I/M ratio vs control group): 26.6%
